Assay results: article PMC3631453 (ACS chemical biology, 2013)
Marks after values point to notes of the source that are not given here.

How the values were obtained:
U2OS cells = assay: Cell density of transfected U2OS cells; type: cell-based
full-length human ERβ = full-length human ERβ (Homo sapiens, UniProt Q92731); conditions: relative to E2 = 100%; cited from earlier work
ERβ = ERβ (Homo sapiens, UniProt Q92731); assay: ER-regulated reporter gene; conditions: U2OS, read-out: Hormonal activity (U2OS Cells) ERβ IA (intrinsic activity)
Sequence of ERβ (Q92731 whole entry): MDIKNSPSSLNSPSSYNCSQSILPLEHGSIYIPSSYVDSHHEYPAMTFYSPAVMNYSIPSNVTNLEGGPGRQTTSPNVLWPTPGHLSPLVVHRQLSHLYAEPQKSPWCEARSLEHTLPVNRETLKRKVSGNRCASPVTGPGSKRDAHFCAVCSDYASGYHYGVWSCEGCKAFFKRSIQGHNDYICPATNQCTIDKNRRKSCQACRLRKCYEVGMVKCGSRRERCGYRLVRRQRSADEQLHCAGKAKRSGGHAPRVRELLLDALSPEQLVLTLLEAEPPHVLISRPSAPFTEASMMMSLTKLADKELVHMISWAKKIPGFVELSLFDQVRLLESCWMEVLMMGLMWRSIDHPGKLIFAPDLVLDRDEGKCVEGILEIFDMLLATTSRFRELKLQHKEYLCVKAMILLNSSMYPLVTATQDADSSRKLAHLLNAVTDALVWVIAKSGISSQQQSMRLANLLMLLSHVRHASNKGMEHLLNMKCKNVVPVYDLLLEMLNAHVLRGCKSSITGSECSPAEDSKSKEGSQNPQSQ

MCF-7 = assay: Growth inhibition of ER-positive MCF-7 cells, 96h; type: cell-based; conditions: read-out: Growth inhibition IC50 after 96h MCF7, OHT ligands
MDA-MB-231 = assay: Growth inhibition of ER-negative MDA-MB-231 cells, 96h; type: cell-based; conditions: read-out: Growth inhibition IC50 after 96h MDA-MB-231, OHT ligands

Sequence of full-length human ERβ (Q92731 whole entry): as above

Row | SMILES | Hormonal activity (U2OS Cells) ERα CD (cell density) (U2OS cells; 10nM) | Hormonal activity (U2OS Cells) ERβ CD (cell density) (U2OS cells; 10nM) | RBA for ERβ (full-length human ERβ) | Emax (ERβ) | Hormonal activity (U2OS Cells) ERα CD (cell density) (U2OS cells; 1μM) | Hormonal activity (U2OS Cells) ERβ CD (cell density) (U2OS cells; 1μM) | IC50 (MCF-7) | IC50 (MDA-MB-231)
1 | CC/C(=C(/CC)c1ccc(O)cc1)c1ccc(O)cc1 [DES, diethylstilbestrol] | 103% | 90% | 278 ± 54 ^f % | 111% |  |  |  | 
2 | CC/C(=C(\c1ccc(O)cc1)c1ccc(OCCN(C)C)cc1)c1ccccc1 [OHT, hydroxytamoxifen] |  |  |  |  | 110% | 92% | 150 nM | 4590 nM
